Experimental data published in the supplement of paper PMC10307832.

compound: COc1cccc2c1C(=O)c1c(O)c3c(c(O)c1C2=O)C[C@@](O)(C(=O)CO)C[C@@H]3O[C@H]1C[C@H](N)[C@H](O)[C@H](C)O1 [Doxorubicin] + CCNC(=O)c1noc(-c2cc(C(C)C)c(O)cc2O)c1-c1ccc(CN2CCOCC2)cc1 [Luminespib] (partner 0.01 µM); assay: relative viability (nuclei count vs DMSO), 5 days (fraction); higher = more cells survive; conditions: first compound 0.001 µM
Procedure, shortened: (§1)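 Values are medians from duplicate plates. Each reflects relative viability, defined as the nuclei count of treated wells over that of vehicle wells. Lung cancer cell lines in 1536-well plates were pin-tool dosed one day after seeding with one drug alone or with a fixed anchor-drug dose plus five library-drug doses (not always all listed) in √10 steps, then fixed, stained and imaged at 4× after 5 days.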

Cell Line	relative viability
LU99A	0.226
NCI-H358	0.213
NCI-H322M	0.635
LXF-289	0.63
BEN	0.368
HARA	0.644
HCC-827	0.555
NCI-H520	0.249
LOU-NH91	0.34
NCI-H2023	0.765
A-427	0.803
NCI-H647	0.117
PC-3 [JPC-3]	0.661
NCI-H1755	0.361
NCI-H650	0.694
NCI-H3122	0.0793
NCI-H1395	0.674
201T	1.03
NCI-H1975	0.139
HOP-62	0.906
NCI-H2405	0.572
NCI-H1355	0.697
NCI-H838	0.273
CAL-12T	0.523
NCI-H1666	1.01
EPLC-272H	0.209
NCI-H2347	0.385
NCI-H1915	0.802
NCI-H1437	1.01
NCI-H460	0.0376

same assay, conditions: first compound 0.003162 µM

Cell Line	relative viability
LU99A	0.228
NCI-H358	0.471
NCI-H322M	0.846
LXF-289	0.576
BEN	0.39
HARA	1.1
HCC-827	0.379
NCI-H520	0.242
LOU-NH91	0.347
NCI-H2023	0.677
A-427	0.784
NCI-H647	0.13
PC-3 [JPC-3]	0.748
NCI-H1755	0.273
NCI-H650	0.75
NCI-H3122	0.117

Cell Line	relative viability
NCI-H441	0.312
NCI-H1395	0.765
201T	1.08
NCI-H1975	0.183
HOP-62	0.942
NCI-H2405	0.701
NCI-H1355	0.829
NCI-H838	0.35
CAL-12T	0.394
NCI-H1666	0.868
EPLC-272H	0.262
NCI-H2347	0.547
NCI-H1915	0.733
NCI-H1437	1.17
NCI-H460	0.0412

same assay, conditions: first compound 0.01 µM

Cell Line	relative viability
LU99A	0.268
NCI-H358	0.291
NCI-H322M	0.858
LXF-289	0.703
BEN	0.317
HARA	0.696
HCC-827	0.602
NCI-H520	0.266
LOU-NH91	0.314
NCI-H2023	0.243
A-427	0.866
NCI-H647	0.11
PC-3 [JPC-3]	0.683
NCI-H1755	0.597
NCI-H650	0.78
NCI-H3122	0.102

Cell Line	relative viability
NCI-H441	0.358
NCI-H1395	0.476
201T	1.04
NCI-H1975	0.249
HOP-62	0.896
NCI-H2405	0.778
NCI-H1355	0.686
NCI-H838	0.279
CAL-12T	0.555
NCI-H1666	0.735
EPLC-272H	0.339
NCI-H2347	0.527
NCI-H1915	0.702
NCI-H1437	1.12
NCI-H460	0.0317

same assay, conditions: first compound 0.03162 µM

Cell Line	relative viability
LU99A	0.235
NCI-H358	0.392
NCI-H322M	0.401
LXF-289	0.635
BEN	0.277
HARA	0.641
HCC-827	0.573
NCI-H520	0.18
LOU-NH91	0.323
NCI-H2023	0.0918
A-427	0.656
NCI-H647	0.185
PC-3 [JPC-3]	0.714
NCI-H1755	0.381
NCI-H650	0.565
NCI-H3122	0.0975

Cell Line	relative viability
NCI-H441	0.321
NCI-H1395	0.697
201T	1.01
NCI-H1975	0.167
HOP-62	0.958
NCI-H2405	0.599
NCI-H1355	0.605
NCI-H838	0.255
CAL-12T	0.289
NCI-H1666	0.442
EPLC-272H	0.259
NCI-H2347	0.415
NCI-H1915	0.715
NCI-H1437	0.832
NCI-H460	0.0182

same assay, conditions: first compound 0.1 µM

Cell Line	relative viability
LU99A	0.258
NCI-H358	0.189
NCI-H322M	0.357
LXF-289	0.658
BEN	0.283
HARA	0.325
HCC-827	0.566
NCI-H520	0.217
LOU-NH91	0.328
NCI-H2023	0.0632
A-427	0.64
NCI-H647	0.149
PC-3 [JPC-3]	0.615
NCI-H1755	0.323
NCI-H650	0.627
NCI-H3122	0.0943

Cell Line	relative viability
NCI-H441	0.293
NCI-H1395	0.648
201T	1.11
NCI-H1975	0.178
HOP-62	0.931
NCI-H2405	0.6
NCI-H1355	0.732
NCI-H838	0.172
CAL-12T	0.239
NCI-H1666	0.411
EPLC-272H	0.253
NCI-H2347	0.439
NCI-H1915	0.779
NCI-H1437	0.553
NCI-H460	0.0137

compound: COC1=C(C=C(C=C1)C2=CC3=NC=CN3C(=N2)NC4=C(C=CC=N4)C(=O)N)OC [BAY61-3606] + Cc1nc(NC(=O)N2CCC[C@H]2C(N)=O)sc1-c1ccnc(C(C)(C)C(F)(F)F)c1 [Alpelisib] (partner 2 µM); assay: as above; conditions: first compound 0.02 µM
Procedure, shortened: as §1

Cell Line	relative viability
LU99A	0.508
NCI-H358	0.996
NCI-H322M	0.9
LXF-289	0.991
BEN	1.23
HARA	0.867
HCC-827	0.94
NCI-H520	1.07
LOU-NH91	0.764
NCI-H2023	0.614
A-427	1.11
NCI-H647	1.02
PC-3 [JPC-3]	1.05
NCI-H1755	0.946
NCI-H650	1.27
NCI-H3122	0.797

Cell Line	relative viability
NCI-H441	0.734
NCI-H1395	1.16
201T	1.07
NCI-H1975	0.667
HOP-62	0.901
NCI-H2405	1.03
NCI-H1355	0.944
NCI-H838	0.988
CAL-12T	1.21
NCI-H1666	0.903
EPLC-272H	1.03
NCI-H2347	1.17
NCI-H1915	1.07
NCI-H1437	0.987
NCI-H460	0.58

same assay, conditions: first compound 0.06325 µM

Cell Line	relative viability
LU99A	0.521
NCI-H358	0.753
NCI-H322M	0.792
LXF-289	1.09
BEN	0.831
HARA	0.88
HCC-827	1.01
NCI-H520	0.801
LOU-NH91	0.643
NCI-H2023	0.607
A-427	1.13
NCI-H647	1.36
PC-3 [JPC-3]	1.08
NCI-H1755	1.01
NCI-H650	1.12
NCI-H3122	0.879
NCI-H441	0.796
NCI-H1395	0.957
201T	1.03
NCI-H1975	0.645
NCI-H2405	0.619
NCI-H1355	0.811
NCI-H838	0.963
CAL-12T	1.28
EPLC-272H	0.935
NCI-H2347	0.9
NCI-H1915	1.08
NCI-H1437	0.988
NCI-H460	0.442

same assay, conditions: first compound 0.2 µM

Cell Line	relative viability
LU99A	0.508
NCI-H358	0.732
NCI-H322M	0.852
LXF-289	1.03
BEN	1.24
HARA	0.877
HCC-827	0.995
NCI-H520	1.11
LOU-NH91	0.73
NCI-H2023	0.604
A-427	1.1
NCI-H647	0.922
PC-3 [JPC-3]	1.04
NCI-H1755	0.908
NCI-H650	1
NCI-H3122	0.868

Cell Line	relative viability
NCI-H441	0.809
NCI-H1395	1.07
201T	1.05
NCI-H1975	0.62
HOP-62	0.874
NCI-H2405	0.682
NCI-H1355	0.791
NCI-H838	0.982
CAL-12T	1.11
NCI-H1666	0.981
EPLC-272H	1
NCI-H2347	1.13
NCI-H1915	1.06
NCI-H1437	0.935
NCI-H460	0.482

same assay, conditions: first compound 0.6325 µM

Cell Line	relative viability
LU99A	0.492
NCI-H358	0.643
NCI-H322M	0.898
LXF-289	1.14
BEN	1.24
HARA	0.83
HCC-827	0.954
NCI-H520	1.04
LOU-NH91	0.798
NCI-H2023	0.6
A-427	1.07
NCI-H647	1.03
PC-3 [JPC-3]	1.05
NCI-H1755	0.903
NCI-H650	1.1
NCI-H3122	0.833

Cell Line	relative viability
NCI-H441	0.848
NCI-H1395	1.04
201T	1.1
NCI-H1975	0.507
HOP-62	0.947
NCI-H2405	0.881
NCI-H1355	0.713
NCI-H838	1.02
CAL-12T	1.4
NCI-H1666	0.993
EPLC-272H	0.986
NCI-H2347	1.16
NCI-H1915	1.03
NCI-H1437	1.06
NCI-H460	0.398

same assay, conditions: first compound 2 µM

Cell Line	relative viability
LU99A	0.251
NCI-H358	0.228
NCI-H322M	0.841
LXF-289	1.05
BEN	0.958
HARA	0.561
HCC-827	0.916
NCI-H520	1.02
LOU-NH91	0.541
NCI-H2023	0.471
A-427	1.06
NCI-H647	0.534
PC-3 [JPC-3]	0.878
NCI-H1755	0.77
NCI-H650	0.871
NCI-H3122	0.69
NCI-H441	0.439
NCI-H1395	0.97
201T	1.09
NCI-H1975	0.295
HOP-62	0.64
NCI-H2405	0.574
NCI-H1355	0.534
NCI-H838	0.888
CAL-12T	0.607
NCI-H1666	0.956
EPLC-272H	0.905
NCI-H2347	0.986
NCI-H1915	0.93
NCI-H1437	0.903
